Experimental data published in ChEMBL document CHEMBL4665820, “Discovery of VU6027459: A First-in-Class Selective and CNS Penetrant mGlu Positive Allosteric Modulator Tool Compound” (ACS Med Chem Lett, 2020).

Legend:
[1] = species on record: Rattus norvegicus; experiment: Displacement of [3H]-Flunitrazepam from GABAA channel flunitrazepam binding site in rat brain at 10 uM incubated for 60 mins by scintillation counting analysis relative to control; assay type: tissue-based
[2] = molecular target: Muscarinic acetylcholine receptor M1 (Homo sapiens) (UniProt P11229); experiment: Displacement of [125I]pirenzepine from human recombinant M1 receptor at 10 uM after 60 mins by scintillation counting analysis relative to control
[3] = molecular target: D(3) dopamine receptor (Homo sapiens) (UniProt P35462); experiment: Displacement of [3H]-methyl-spiperone from human recombinant Dopamine D3 receptor at 10 uM incubated for 60 mins by scintillation counting analysis relative to control
[4] = molecular target: Alpha-1D adrenergic receptor (Homo sapiens) (UniProt P25100); experiment: Displacement of [3H]-Prazosin from human recombinant adrenergic alpha 1D receptor at 10 uM incubated for 60 mins by scintillation counting analysis relative to control
[5] = molecular target: D(1A) dopamine receptor (Homo sapiens) (UniProt P21728); experiment: Displacement of [3H]-SCH 23390 from human recombinant dopamine D1 receptor at 10 uM by scintillation counting 60 mins analysis relative to control
[6] = molecular target: Kappa-type opioid receptor (Homo sapiens) (UniProt P41145); experiment: Displacement of [3H]U69593 from human kappa receptor at 10 uM after 60 mins by scintillation counting analysis relative to control
[7] = molecular target: Glutamate NMDA receptor (Rattus norvegicus) (UniProt P35439+Q00959+Q00960+Q00961+Q62645+Q8VHN2+Q9R1M7); experiment: Displacement of [3H]-CGP39653 from NMDA glutamate receptor in rat at 10 uM incubated for 20 mins by scintillation counting analysis relative to control
[8] = molecular target: Cysteinyl leukotriene receptor 1 (Homo sapiens) (UniProt Q9Y271); experiment: Displacement of [3H]-LTD4 from human recombinant CysLT1 Leukotriene receptor at 10 uM incubated for 60 mins by scintillation counting analysis relative to control
[9] = test system: CHO-K1; experiment: Inhibition of human recombinant full length Dopamine D4.2 receptor expressed in CHOK1 cells at 10 uM incubated for 30 mins by GTPgammaS assay relative to control; assay type: cell-based
[10] = molecular target: Sigma non-opioid intracellular receptor 1 (Homo sapiens, UniProt Q99720); experiment: Displacement of [3H]-Pentazocine from human recombinant sigma 1 receptor at 10 uM incubated for 120 mins by scintillation counting analysis relative to control
[11] = molecular target: Sodium-dependent noradrenaline transporter (Homo sapiens) (UniProt P23975); experiment: Displacement of […] from recombinant human norepinephrine transporter at 10 uM after 120 mins by scintillation counting analysis relative to control
[12] = molecular target: Sodium-dependent serotonin transporter (Homo sapiens) (UniProt P31645); experiment: Displacement of [3H]-imipramine from recombinant human 5-HT transporter at 10 uM after 60 mins by scintillation counting relative to control
[13] = molecular target: Histamine H2 receptor (Homo sapiens) (UniProt P25021); experiment: Displacement of [125I]APT from human recombinant histamine H2 receptor at 10 uM after 120 mins by scintillation counting analysis relative to control
[14] = molecular target: D(2) dopamine receptor (Homo sapiens) (UniProt P14416); experiment: Displacement of [3H]7-OH-DPAT from human recombinant dopamine D2S receptor at 10 uM after 60 mins by scintillation counting analysis relative to control
[15] = species on record: Rattus norvegicus; experiment: Displacement of [3H]-Diltiazem from L-type calcium channel benzothiazepine binding site in rat brain at 10 uM incubated for 180 mins by scintillation counting analysis relative to control; assay type: tissue-based
[16] = molecular target: Prostaglandin E2 receptor EP4 subtype (Homo sapiens) (UniProt P35408); experiment: Displacement of [3H]-Prostaglandin E2 from human recombinant prostanoid receptor EP4 at 10 uM incubated for 120 mins by scintillation counting analysis relative to control
[17] = molecular target: Muscarinic acetylcholine receptor M2 (Homo sapiens) (UniProt P08172); experiment: Displacement of [3H]AF-DX 384 from human recombinant M2 receptor at 10 uM after 60 mins by scintillation counting analysis relative to control
[18] = molecular target: Neuropeptide Y receptor type 2 (Homo sapiens) (UniProt P49146); experiment: Displacement of [125I]peptide YY from human Y2 receptor at 10 uM after 120 mins by scintillation counting analysis relative to control
[19] = molecular target: Adenosine receptor A3 (Homo sapiens) (UniProt P0DMS8); experiment: Displacement of [125I]AB-MECA from human recombinant adenosine A3 receptor at 10 uM after 120 mins by scintillation counting analysis relative to control
[20] = molecular target: Metabotropic glutamate receptor 7 (Rattus norvegicus, UniProt P35400); experiment: Positive allosteric modulation of rat mGlu7 receptor expressed in HEK293 cells co-expressing Gai5 assessed as potentiation of L-AP4-induced calcium mobilization preincubated for 140 secs and treated with EC20 L-AP4 for 125 secs and followed by subsequent addition of EC80 L-AP4 by Fluo-4-AM dye based fluorescence assay; assay type: functional, cell-based; conditions: read-out: EC50
[21] = species on record: Rattus norvegicus; experiment: Displacement of [125I]-Omega -conotoxin GIVA from N-type calcium channel in rat brain membrane at 10 uM incubated for 30 mins by scintillation counting analysis relative to control; assay type: cell membranes
[22] = species on record: Rattus norvegicus; experiment: Displacement of [3H]-idazoxan from rat imidazoline I2 receptor at 10 uM incubated for 30 mins by scintillation counting analysis relative to control
[23] = molecular target: Endothelin-1 receptor (Homo sapiens) (UniProt P25101); experiment: Displacement of [125I]-endothelin-1 from human recombinant ETA receptor at 10 uM after 120 mins by scintillation counting analysis relative to control
[24] = molecular target: Acetylcholine receptor subunit alpha (Homo sapiens) (UniProt P02708); experiment: Displacement of [125I] alpha-Bungarotoxin from human nicotinic acetylcholine alpha 1 receptor at 10 uM incubated for 120 mins by radioligand binding assay relative to control
[25] = molecular target: Sodium-dependent dopamine transporter (Homo sapiens, UniProt Q01959); experiment: Displacement of […] from recombinant human Dopamine transporter after 120 mins by scintillation counting analysis; assay type: ADME
[26] = molecular target: Adenosine receptor A2a (Homo sapiens) (UniProt P29274); experiment: Displacement of [3H]-CGS 21680 from human recombinant adenosine A2A receptor at 10 uM after 120 mins by scintillation counting analysis relative to control
[27] = molecular target: Neuropeptide Y receptor type 1 (Homo sapiens) (UniProt P25929); experiment: Displacement of [125I]peptide YY from human Y1 receptor at 10 uM after 120 mins by scintillation counting analysis relative to control
[28] = molecular target: Alpha-1B adrenergic receptor (Homo sapiens) (UniProt P35368); experiment: Displacement of [3H]-Prazosin from human recombinant adrenergic alpha 1B receptor at 10 uM incubated for 60 mins by scintillation counting analysis relative to control
[29] = molecular target: Androgen receptor (Homo sapiens) (UniProt P10275); experiment: Displacement of [3H]-methyltrienolone from human androgen receptor at 10 uM incubated for 1440 mins by scintillation counting analysis relative to control
[30] = molecular target: Substance-P receptor (Homo sapiens) (UniProt P25103); experiment: Displacement of [125I]-Substance P LYS3 from human recombinant tachykinin NK1 receptor at 10 uM incubated for 30 mins by scintillation counting analysis relative to control
Substance-P receptor (Homo sapiens), sequence (P25103 whole entry): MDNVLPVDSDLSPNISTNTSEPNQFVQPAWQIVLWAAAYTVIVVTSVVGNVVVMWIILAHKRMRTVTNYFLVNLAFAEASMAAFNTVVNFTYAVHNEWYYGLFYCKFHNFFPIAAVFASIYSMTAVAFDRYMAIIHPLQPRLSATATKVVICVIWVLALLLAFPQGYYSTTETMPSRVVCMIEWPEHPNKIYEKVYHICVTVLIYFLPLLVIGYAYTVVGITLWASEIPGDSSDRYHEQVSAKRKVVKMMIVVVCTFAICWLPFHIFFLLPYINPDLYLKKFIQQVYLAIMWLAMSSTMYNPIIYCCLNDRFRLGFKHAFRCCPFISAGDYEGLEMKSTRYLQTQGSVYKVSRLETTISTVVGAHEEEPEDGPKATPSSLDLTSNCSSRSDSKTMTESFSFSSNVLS

Histamine H2 receptor (Homo sapiens), sequence (P25021 whole entry): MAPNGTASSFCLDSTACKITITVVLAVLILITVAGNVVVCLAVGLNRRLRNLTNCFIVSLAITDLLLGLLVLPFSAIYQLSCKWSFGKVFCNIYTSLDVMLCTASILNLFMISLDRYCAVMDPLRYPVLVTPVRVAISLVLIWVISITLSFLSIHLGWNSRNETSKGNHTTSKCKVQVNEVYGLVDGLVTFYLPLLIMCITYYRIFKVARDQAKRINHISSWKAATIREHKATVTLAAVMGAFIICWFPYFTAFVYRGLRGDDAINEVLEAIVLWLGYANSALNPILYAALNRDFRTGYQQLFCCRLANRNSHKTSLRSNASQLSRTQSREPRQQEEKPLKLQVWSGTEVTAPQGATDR
Neuropeptide Y receptor type 2 (Homo sapiens), sequence (P49146 whole entry): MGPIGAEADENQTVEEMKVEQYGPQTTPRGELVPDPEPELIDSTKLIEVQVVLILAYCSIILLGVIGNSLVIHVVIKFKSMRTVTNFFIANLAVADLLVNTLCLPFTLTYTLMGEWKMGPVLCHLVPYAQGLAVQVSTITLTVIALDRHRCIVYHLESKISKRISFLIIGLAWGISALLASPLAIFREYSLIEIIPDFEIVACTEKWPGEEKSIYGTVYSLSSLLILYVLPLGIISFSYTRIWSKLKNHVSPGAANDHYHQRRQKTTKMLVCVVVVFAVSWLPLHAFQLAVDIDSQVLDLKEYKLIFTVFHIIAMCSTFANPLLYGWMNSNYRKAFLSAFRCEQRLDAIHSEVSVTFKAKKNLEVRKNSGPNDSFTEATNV
Sodium-dependent dopamine transporter, sequence (Q01959 whole entry): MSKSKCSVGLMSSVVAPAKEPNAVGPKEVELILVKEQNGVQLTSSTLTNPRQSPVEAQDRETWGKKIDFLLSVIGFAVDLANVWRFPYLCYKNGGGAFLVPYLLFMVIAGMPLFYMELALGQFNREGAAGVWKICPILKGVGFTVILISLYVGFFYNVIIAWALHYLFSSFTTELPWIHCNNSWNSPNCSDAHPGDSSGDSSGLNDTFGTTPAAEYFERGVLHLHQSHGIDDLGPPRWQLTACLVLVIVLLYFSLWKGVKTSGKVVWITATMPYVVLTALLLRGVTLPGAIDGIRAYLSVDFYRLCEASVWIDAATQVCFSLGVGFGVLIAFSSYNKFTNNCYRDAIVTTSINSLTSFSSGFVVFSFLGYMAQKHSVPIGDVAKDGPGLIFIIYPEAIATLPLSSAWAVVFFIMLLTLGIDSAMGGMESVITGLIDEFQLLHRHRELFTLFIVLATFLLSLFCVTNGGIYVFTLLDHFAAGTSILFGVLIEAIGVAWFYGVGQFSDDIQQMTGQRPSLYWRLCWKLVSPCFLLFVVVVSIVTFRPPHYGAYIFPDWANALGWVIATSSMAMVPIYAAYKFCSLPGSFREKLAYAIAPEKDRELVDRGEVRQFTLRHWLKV
D(3) dopamine receptor (Homo sapiens), sequence (P35462 whole entry): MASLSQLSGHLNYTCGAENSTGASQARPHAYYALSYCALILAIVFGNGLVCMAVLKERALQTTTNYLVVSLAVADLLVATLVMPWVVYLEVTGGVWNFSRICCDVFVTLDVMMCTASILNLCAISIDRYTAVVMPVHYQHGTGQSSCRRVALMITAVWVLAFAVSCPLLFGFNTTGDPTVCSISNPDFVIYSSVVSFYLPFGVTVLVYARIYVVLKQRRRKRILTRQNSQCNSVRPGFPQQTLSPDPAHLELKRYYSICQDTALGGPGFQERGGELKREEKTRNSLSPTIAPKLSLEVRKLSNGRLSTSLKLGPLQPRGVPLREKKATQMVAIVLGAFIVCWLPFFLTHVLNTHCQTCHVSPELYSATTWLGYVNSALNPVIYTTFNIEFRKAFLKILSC
Cysteinyl leukotriene receptor 1 (Homo sapiens), sequence (Q9Y271 whole entry): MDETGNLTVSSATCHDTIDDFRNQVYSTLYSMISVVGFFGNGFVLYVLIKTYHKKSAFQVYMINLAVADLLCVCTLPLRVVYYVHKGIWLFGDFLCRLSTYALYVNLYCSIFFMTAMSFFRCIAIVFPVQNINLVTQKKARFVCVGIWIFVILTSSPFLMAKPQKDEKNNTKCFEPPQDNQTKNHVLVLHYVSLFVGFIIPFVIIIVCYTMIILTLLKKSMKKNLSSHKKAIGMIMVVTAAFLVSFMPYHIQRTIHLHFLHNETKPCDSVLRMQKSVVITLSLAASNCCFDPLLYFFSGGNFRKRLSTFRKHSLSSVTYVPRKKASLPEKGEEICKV
Adenosine receptor A3 (Homo sapiens), sequence (P0DMS8 whole entry): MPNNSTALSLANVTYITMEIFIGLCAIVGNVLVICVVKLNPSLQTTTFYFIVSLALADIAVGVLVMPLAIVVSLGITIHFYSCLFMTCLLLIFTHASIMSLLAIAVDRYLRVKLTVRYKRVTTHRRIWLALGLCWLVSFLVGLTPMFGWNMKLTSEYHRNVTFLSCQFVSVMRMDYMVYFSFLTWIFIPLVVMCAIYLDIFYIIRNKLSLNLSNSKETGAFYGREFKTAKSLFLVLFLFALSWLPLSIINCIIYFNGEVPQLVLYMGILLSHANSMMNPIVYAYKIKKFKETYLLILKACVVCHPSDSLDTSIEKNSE
Neuropeptide Y receptor type 1 (Homo sapiens), sequence (P25929 whole entry): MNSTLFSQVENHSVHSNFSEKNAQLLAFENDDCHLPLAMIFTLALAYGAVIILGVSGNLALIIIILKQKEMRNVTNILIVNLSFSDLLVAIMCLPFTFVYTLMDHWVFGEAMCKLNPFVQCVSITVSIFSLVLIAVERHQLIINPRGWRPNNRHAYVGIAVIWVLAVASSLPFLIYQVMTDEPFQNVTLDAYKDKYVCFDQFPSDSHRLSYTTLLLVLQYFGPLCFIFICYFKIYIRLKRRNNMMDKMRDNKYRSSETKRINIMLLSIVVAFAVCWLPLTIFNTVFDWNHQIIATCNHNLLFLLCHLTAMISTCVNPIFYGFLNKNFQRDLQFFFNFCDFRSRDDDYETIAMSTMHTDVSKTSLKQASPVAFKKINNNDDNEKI
Metabotropic glutamate receptor 7, sequence (P35400 whole entry): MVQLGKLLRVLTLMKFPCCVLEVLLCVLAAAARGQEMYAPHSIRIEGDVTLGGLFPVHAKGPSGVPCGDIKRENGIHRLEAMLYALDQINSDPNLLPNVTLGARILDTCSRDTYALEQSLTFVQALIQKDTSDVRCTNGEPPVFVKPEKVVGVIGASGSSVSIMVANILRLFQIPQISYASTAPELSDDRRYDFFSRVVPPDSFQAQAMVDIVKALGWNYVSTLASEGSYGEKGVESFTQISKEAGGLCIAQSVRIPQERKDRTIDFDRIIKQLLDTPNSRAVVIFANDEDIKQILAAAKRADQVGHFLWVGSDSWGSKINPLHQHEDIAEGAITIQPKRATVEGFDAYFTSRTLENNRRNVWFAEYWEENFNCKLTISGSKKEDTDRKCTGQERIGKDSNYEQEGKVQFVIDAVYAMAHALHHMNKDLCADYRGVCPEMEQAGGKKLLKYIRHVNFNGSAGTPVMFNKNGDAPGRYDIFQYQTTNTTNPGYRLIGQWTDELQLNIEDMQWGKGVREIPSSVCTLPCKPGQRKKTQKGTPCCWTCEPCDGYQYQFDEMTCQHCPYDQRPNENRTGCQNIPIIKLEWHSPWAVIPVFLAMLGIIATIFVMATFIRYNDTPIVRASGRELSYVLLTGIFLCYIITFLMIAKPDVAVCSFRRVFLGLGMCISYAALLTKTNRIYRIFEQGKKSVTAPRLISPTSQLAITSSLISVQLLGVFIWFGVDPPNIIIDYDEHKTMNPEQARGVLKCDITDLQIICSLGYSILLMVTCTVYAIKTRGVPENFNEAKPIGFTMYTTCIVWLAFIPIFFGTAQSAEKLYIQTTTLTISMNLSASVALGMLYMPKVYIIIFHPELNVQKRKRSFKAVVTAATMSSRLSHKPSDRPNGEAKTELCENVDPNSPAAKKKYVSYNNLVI
Alpha-1B adrenergic receptor (Homo sapiens), sequence (P35368 whole entry): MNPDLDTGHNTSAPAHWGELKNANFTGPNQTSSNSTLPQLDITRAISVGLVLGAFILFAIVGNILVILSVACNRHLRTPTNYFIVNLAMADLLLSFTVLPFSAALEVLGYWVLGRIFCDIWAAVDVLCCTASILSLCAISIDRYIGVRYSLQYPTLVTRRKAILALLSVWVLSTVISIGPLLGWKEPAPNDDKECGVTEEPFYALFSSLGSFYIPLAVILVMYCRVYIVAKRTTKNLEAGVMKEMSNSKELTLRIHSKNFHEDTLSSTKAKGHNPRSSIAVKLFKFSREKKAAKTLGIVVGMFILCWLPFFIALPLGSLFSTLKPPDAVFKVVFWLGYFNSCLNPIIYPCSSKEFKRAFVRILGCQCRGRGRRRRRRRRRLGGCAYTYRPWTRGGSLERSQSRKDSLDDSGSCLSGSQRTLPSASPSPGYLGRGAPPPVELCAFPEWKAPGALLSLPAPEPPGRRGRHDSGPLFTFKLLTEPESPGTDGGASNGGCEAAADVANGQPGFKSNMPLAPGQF
Sigma non-opioid intracellular receptor 1, sequence (Q99720 whole entry): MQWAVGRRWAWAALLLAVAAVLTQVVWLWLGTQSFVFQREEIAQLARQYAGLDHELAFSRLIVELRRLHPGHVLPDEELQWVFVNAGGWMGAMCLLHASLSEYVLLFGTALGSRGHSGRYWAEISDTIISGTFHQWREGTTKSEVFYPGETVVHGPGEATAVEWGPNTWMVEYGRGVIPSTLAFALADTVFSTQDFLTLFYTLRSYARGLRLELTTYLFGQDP

COc1cccc2c(N3CCN(c4ccccc4F)CC3)c(C#N)cnc12
inhibition [1]: < 50%
inhibition [2]: < 50%
inhibition [3]: < 50%
inhibition [4]: < 50%
inhibition [5]: < 50%
inhibition [6]: < 50%
inhibition [7]: < 50%
inhibition [8]: < 50%
inhibition [9]: < 50%
inhibition [10]: < 50%
inhibition [11]: < 50%
inhibition [12]: < 50%
inhibition [13]: < 50%
inhibition [14]: < 50%
inhibition [15]: < 50%
inhibition [16]: < 50%
inhibition [17]: < 50%
inhibition [18]: < 50%
inhibition [19]: < 50%
EC50 [20]: 1100 nM
inhibition [21]: < 50%
inhibition [22]: < 50%
inhibition [23]: < 50%
inhibition [24]: < 50%
Ki [25]: 430 nM
inhibition [26]: < 50%
inhibition [27]: < 50%
inhibition [28]: < 50%
inhibition [29]: < 50%
inhibition [30]: < 50%

COc1cc(F)cc2c(N3CCN(c4ccccc4F)CC3)c(C#N)cnc12
inhibition ([1]; tested as the 2H-labelled form): < 50%
inhibition ([2]; tested as the 2H-labelled form): < 50%
inhibition ([3]; tested as the 2H-labelled form): < 50%
inhibition ([4]; tested as the 2H-labelled form): < 50%
inhibition ([5]; tested as the 2H-labelled form): < 50%
inhibition ([6]; tested as the 2H-labelled form): < 50%
inhibition ([7]; tested as the 2H-labelled form): < 50%
inhibition ([8]; tested as the 2H-labelled form): < 50%
inhibition ([9]; tested as the 2H-labelled form): < 50%
inhibition ([10]; tested as the 2H-labelled form): 77%
inhibition ([11]; tested as the 2H-labelled form): < 50%
inhibition ([12]; tested as the 2H-labelled form): < 50%
inhibition ([13]; tested as the 2H-labelled form): < 50%
inhibition ([14]; tested as the 2H-labelled form): < 50%
inhibition ([15]; tested as the 2H-labelled form): < 50%
inhibition ([16]; tested as the 2H-labelled form): < 50%
inhibition ([17]; tested as the 2H-labelled form): < 50%
inhibition ([18]; tested as the 2H-labelled form): < 50%
inhibition ([19]; tested as the 2H-labelled form): < 50%
EC50 [20]: 1400 nM
inhibition ([21]; tested as the 2H-labelled form): < 50%
inhibition ([22]; tested as the 2H-labelled form): < 50%
inhibition ([23]; tested as the 2H-labelled form): < 50%
inhibition ([24]; tested as the 2H-labelled form): < 50%
IC50 [25]: > 10000 nM
inhibition ([26]; tested as the 2H-labelled form): < 50%
inhibition ([27]; tested as the 2H-labelled form): < 50%
inhibition ([28]; tested as the 2H-labelled form): < 50%
inhibition ([29]; tested as the 2H-labelled form): < 50%
inhibition ([30]; tested as the 2H-labelled form): < 50%
